Assay [1] has as its system Escherichia coli. The experiment in a line: Antimicrobial activity against Escherichia coli DH10B harboring p041060 carrying qepA gene by agar dilution CLSI method. The class given is functional.
Assay [2] deals with Escherichia coli. The assay is described as follows: Antimicrobial activity against Escherichia coli MRY04-1060 expressing qepA gene by agar dilution CLSI method. The class given is functional.
Assay [3] deals with Escherichia coli. The assay is described as follows: Antimicrobial activity against Escherichia coli DH10B harboring p05283 carrying qepA and rmtB gene by agar dilution CLSI method. The class given is functional.
The test system of assay [4] is Escherichia coli. The experiment in a line: Antimicrobial activity against Escherichia coli MRY05-3283 expressing qepA and rmtB gene by agar dilution CLSI method. Format: functional. Background: In agar dilution, organisms are placed on agar that contains the substance at set levels.
In assay [5] the test system is Escherichia coli. The assay is described as follows: Antimicrobial activity against Escherichia coli isolate DH10B by agar dilution CLSI method.
Assay [6] deals with Escherichia coli. The assay is described as follows: Ratio of MIC for Escherichia coli DH10B harboring p05283 carrying qepA and rmtB gene to MIC for Escherichia coli isolate DH10B. Format: functional.
For assay [7], the system named is Escherichia coli. The experiment in a line: Ratio of MIC for Escherichia coli DH10B harboring p041060 carrying qepA gene to MIC for Escherichia coli isolate DH10B. Format: functional.

≈ marks a conversion by molar mass, not a printed value.

For orientation: MIC means the smallest concentration in the dilution series that meets the test's criterion for growth inhibition. Consider `NCC[C@H](O)C(=O)N[C@@H]1C[C@H](N)[C@@H](O[C@H]2O[C@H](CN)[C@@H](O)[C@H](O)[C@H]2O)[C@H](O)[C@H]1O[C@H]1O[C@H](CO)[C@@H](O)[C@H](N)[C@H]1O` [AMIKACIN], for which the MIC is greater than 128 µg/mL in assay [1]; greater than 128 µg/mL in assay [2]; greater than 128 µg/mL in assay [3]; greater than 128 µg/mL in assay [4]; 2 µg/mL (≈ 3.42 µM) in assay [5].

Take `CO/N=C(\C(=O)N[C@@H]1C(=O)N2C(C(=O)O)=C(COC(C)=O)CS[C@H]12)c1csc(N)n1` [CEFOTAXIME]: the MIC in assay [1] was found to be 0.06 µg/mL (≈ 0.132 µM); in assay [2], 0.13 µg/mL (≈ 0.285 µM); in assay [3], 0.06 µg/mL (≈ 0.132 µM); in assay [4] it was 0.13 µg/mL (≈ 0.285 µM); in assay [5] it was 0.06 µg/mL (≈ 0.132 µM).

Take `CC(C)(O/N=C(\C(=O)N[C@@H]1C(=O)N2C(C(=O)[O-])=C(C[n+]3ccccc3)CS[C@H]12)c1csc(N)n1)C(=O)O` [CEFTAZIDIME]: the MIC was 0.5 µg/mL (≈ 0.915 µM) in assay [1]; 0.5 µg/mL (≈ 0.915 µM) in assay [2]; 0.5 µg/mL (≈ 0.915 µM) in assay [3]; 0.5 µg/mL (≈ 0.915 µM) in assay [4]; 0.25 µg/mL (≈ 0.457 µM) in assay [5].

As to `C[C@@H](O)[C@H]1C(=O)N2C(C(=O)O)=C(SCCNC=N)C[C@H]12` [IMIPENEM ANHYDROUS], the MIC was determined as 0.13 µg/mL (≈ 0.434 µM) in assay [2], 0.13 µg/mL (≈ 0.434 µM) in assay [4] and 0.25 µg/mL (≈ 0.835 µM) in assay [5].

On to `C[C@H]1COc2c(N3CCN(C)CC3)c(F)cc3c(=O)c(C(=O)O)cn1c23.C[C@H]1COc2c(N3CCN(C)CC3)c(F)cc3c(=O)c(C(=O)O)cn1c23.O` [LEVOFLOXACIN], for which the MIC in assay [2] is 64 µg/mL; in assay [4], 128 µg/mL; in assay [5] it was no more than 0.008 µg/mL.

As to `CCn1cc(C(=O)O)c(=O)c2cc(F)c(N3CCNCC3)cc21` [NORFLOXACIN], the MIC in assay [1] was 0.25 µg/mL (≈ 0.783 µM); in assay [2], greater than 128 µg/mL; in assay [3] it was 0.25 µg/mL (≈ 0.783 µM); in assay [4] it was greater than 128 µg/mL; in assay [5], no more than 0.008 µg/mL. For the same compound, the Ratio in assay [6] and in assay [7] was 4 throughout.

As to `NC[C@H]1O[C@H](O[C@H]2[C@H](O)[C@@H](O[C@H]3O[C@H](CO)[C@@H](O)[C@H](N)[C@H]3O)[C@H](N)C[C@@H]2N)[C@H](N)C[C@@H]1O` [TOBRAMYCIN], the MIC in assay [1] is greater than 128 µg/mL; in assay [2], greater than 128 µg/mL; in assay [3], greater than 128 µg/mL; in assay [4] it was greater than 128 µg/mL; in assay [5], 0.5 µg/mL (≈ 1.07 µM).

As to GENTAMICIN, the MIC in assay [1], in assay [2], in assay [3] and in assay [4] was greater than 128 µg/mL in each case.

Source of the values: ChEMBL document CHEMBL1255325, “Plasmid-mediated qepA gene among Escherichia coli clinical isolates from Japan” (2008).
